“Also recorded” adds a separate entry of the source.
What was measured:
κ opioid (KOP) receptors = details: cited from earlier work
[1] = test system: locomotor effects of cocaine; details: rats; cited from earlier work
[2] = test system: opioid mediated antinociceptive properties; details: rats; cited from earlier work
5-HT2A receptor = details: cited from earlier work
KOP receptors [3] = biological target: T1, KOP receptors (Homo sapiens, UniProt P41145); test: biochemical; type: biochemical
DOP receptors = DOP receptors (Homo sapiens, UniProt P41143); type: binding
Chain of DOP receptors (P41143 whole entry): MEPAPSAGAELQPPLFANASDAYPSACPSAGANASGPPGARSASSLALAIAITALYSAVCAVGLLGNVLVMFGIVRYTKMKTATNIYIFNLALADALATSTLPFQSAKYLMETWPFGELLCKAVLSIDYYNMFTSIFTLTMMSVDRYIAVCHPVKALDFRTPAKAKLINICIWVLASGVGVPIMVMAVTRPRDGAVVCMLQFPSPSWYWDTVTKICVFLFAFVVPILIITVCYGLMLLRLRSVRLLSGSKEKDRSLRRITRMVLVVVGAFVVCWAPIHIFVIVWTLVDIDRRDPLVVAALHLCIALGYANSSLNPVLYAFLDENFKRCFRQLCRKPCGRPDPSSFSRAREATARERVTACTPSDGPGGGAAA

KOP receptors [4] = biological target: T1, KOP receptors; test: biochemical; type: binding

T1 sequence (P41145 whole entry): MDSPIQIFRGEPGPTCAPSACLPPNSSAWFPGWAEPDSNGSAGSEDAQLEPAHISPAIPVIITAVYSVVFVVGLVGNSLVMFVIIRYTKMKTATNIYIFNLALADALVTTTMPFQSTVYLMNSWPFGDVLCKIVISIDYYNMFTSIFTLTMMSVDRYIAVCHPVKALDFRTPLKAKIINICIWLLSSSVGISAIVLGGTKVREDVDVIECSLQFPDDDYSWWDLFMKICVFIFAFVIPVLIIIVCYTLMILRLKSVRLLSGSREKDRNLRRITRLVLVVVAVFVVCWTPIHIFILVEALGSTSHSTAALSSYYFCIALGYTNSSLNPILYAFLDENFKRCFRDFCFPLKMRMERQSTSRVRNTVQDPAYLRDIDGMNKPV

COC(=O)[C@@H]1C[C@H](OC(C)=O)C(=O)[C@H]2[C@@]1(C)CC[C@H]1C(=O)O[C@H](c3ccoc3)C[C@]21C [Compound 1, (2S,4aR,6aR,7R,9S,10aS,10bR)-methyl 9-acetoxy-2-(furan-3-yl)-6a,10b-dimethyl-4,10-dioxo-dodecahydro-1H-benzo[f]isochromene-7-carboxylate]
Agonism at κ opioid (KOP) receptors (κ opioid (KOP) receptors): full agonist
Effect on locomotor effects of cocaine [1]: can block the locomotor effects of cocaine
Antinociceptive properties [2]: opioid mediated antinociceptive properties
Affinity for the 5-HT2A receptor (5-HT2A receptor): does not have any affinity
KOP ED50 ± SD (KOP receptors [3]): 40 nM

CCOC(=O)C1=C(C(=O)OCC)C2OC1C=C2[C@@H]1C[C@]2(C)[C@H]3C(=O)[C@@H](OC(C)=O)C[C@@H](C(=O)OC)[C@]3(C)CC[C@H]2C(=O)O1 (stereo partly drawn) [Compound 5, Diethyl 5-((2S,4aR,6aR,7R,9S,10aS,10bR)-9-acetoxy-7-(methoxycarbonyl)-6a,10b-dimethyl-4,10-dioxododecahydro-1H-benzo[f]isochromen-2-yl)-7-oxabicyclo[2.2.1]hepta-2,5-diene-2,3-dicarboxylate]
Fold increase in affinity for DOP receptors (DOP receptors): over 4 fold
EC50 (KOP receptors [3]): 2150 nM
Efficacy at KOP receptors (in words) (KOP receptors [3]): full agonists; also recorded: high efficacy

COC(=O)C1=C(C(=O)OC)C2OC1C=C2[C@@H]1C[C@]2(C)[C@H]3C(=O)[C@@H](OC(C)=O)C[C@@H](C(=O)OC)[C@]3(C)CC[C@H]2C(=O)O1 (stereo partly drawn) [Compound 6, Dimethyl 5-((2S,4aR,6aR,7R,9S,10aS,10bR)-9-acetoxy-7-(methoxycarbonyl)-6a,10b-dimethyl-4,10-dioxododecahydro-1H-benzo[f]isochromen-2-yl)-7-oxabicyclo[2.2.1]hepta-2,5-diene-2,3-dicarboxylate]
EC50 (KOP receptors [3]): 980 ± 200 nM
Efficacy at KOP receptors (in words) (KOP receptors [3]): full agonist

COC(=O)[C@@H]1C[C@H](OC(C)=O)C(=O)[C@H]2[C@@]1(C)CC[C@H]1C(=O)O[C@H](C3=CC4OC3C3C5OC(c6c5c5ccccc5c(=O)c5ccccc65)C43)C[C@]21C (stereo partly drawn) [Compound 11, (2S,4aR,6aR,7R,9S,10aS,10bR)-Methyl 9-acetoxy-2-(8,8a,9,12,12a,13-hexahydro-8,13:9,12-diepoxy-5H-dibenzo[3,4:6,7]cyclohept[1,2]naphthanen-5-on-10-yl)-6a,10b-dimethyl-4,10-dioxododecahydro-1H-benzo[f]isochromene-7-carboxylate]
Ki ± SD (nM) DOP (DOP receptors): no appreciable affinity

COC(=O)[C@@H]1C[C@H](OC(C)=O)C(=O)[C@H]2[C@@]1(C)CC[C@H]1C(=O)O[C@H](C3=CC4OC3C3C4C4OC3(C)c3c4c4ccccc4c(=O)c4ccccc34)C[C@]21C (stereo partly drawn) [Compound 12, (2S,4aR,6aR,7R,9S,10aS,10bR)-Methyl 9-acetoxy-2-(8,8a,9,12,12a,13-hexahydro-8-methyl-8,13:9,12-diepoxy-5H-dibenzo[3,4:6,7]cyclohept[1,2]naphthanen-5-on-10-yl)-6a,10b-dimethyl-4,10-dioxododecahydro-1H-benzo[f]isochromene-7-carboxylate]
Fold increase in affinity for KOP receptors (KOP receptors [4]): 44 fold

COC(=O)c1ccc([C@@H]2C[C@]3(C)[C@H]4C(=O)[C@@H](OC(C)=O)C[C@@H](C(=O)OC)[C@]4(C)CC[C@H]3C(=O)O2)cc1C(=O)OC [Compound 14, Dimethyl 4-((2S,4aR,6aR,7R,9S,10aS,10bR)-9-acetoxy-7-(methoxycarbonyl)-6a,10b-dimethyl-4,10-dioxododecahydro-1H-benzo[f]isochromen-2-yl)phthalate]
Ki (KOP receptors [4]): 228 nM

COC(=O)[C@@H]1C[C@H](OC(C)=O)C(=O)[C@H]2[C@@]1(C)CC[C@H]1C(=O)O[C@H](c3ccc4ccccc4c3)C[C@]21C [Compound 15, (2S,4aR,6aR,7R,9S,10aS,10bR)-methyl 9-acetoxy-6a,10b-dimethyl-2-(naphthalen-2-yl)-4,10-dioxododecahydro-1H-benzo[f]isochromene-7-carboxylate]
Ki (KOP receptors [4]): 286 nM

Reference: PMC3081938 (Journal of natural products, 2011)
